Results as given in patent publication US7524503B2, “Human cytomegalovirus (HCMV) cytotoxic T cell epitopes, polyepitopes compositions comprising same and diagnostic and prophylactic and therapeutic uses therefor” (priority 2001, dated 2009).
“And” between values parts separate entries of the source, which are not always exact repeats. Equal entries are not always repeated. Where two headings read alike, the source gives them in different places.

Tests used:
Type in all cases: cell-based, human
[1] = test system: PBMC from healthy HCMV seropositive donors; assay: IFN-γ ELISPOT assay; conditions: for ELISPOT Responses (SFC/10^6 PBMC): peptide 10 μg/ml
Method in brief: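 PBMC from healthy HCMV-seropositive donors (2.5×10^5 cells/well) were stimulated 18 h at 37° C with individual synthetic HCMV peptides (10 μg/ml) on anti-IFN-γ-coated nitrocellulose. IFN-γ spots were developed with biotinylated antibody and streptavidin-alkaline phosphatase and counted automatically. Counts were averaged over 3 wells, and no-peptide wells were subtracted.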

CD4+ T cells = assay: CD4+/CD8+ analysis of 20-mer peptides (intracellular IFN-γ staining or depletion ELISPOT)
Experimental: (§1) To determine whether a particular 20-mer peptide contained either a CD4^+- or CD8^+-restricted epitope, or both, CD4^+/CD8^+ cell depletion ELISPOT assays were performed on PBMC from healthy virus carriers. For any one experiment, three populations of cells were used: a) CD8^+-depleted PBMC, b) CD4^+-depleted PBMC, and c) non-depleted PBMC. These populations of cells were tested concurrently with the same peptides in a conventional ELISPOT assay as described herein above. DYNABEADS M-450 (Dynal, Oslo, Norway) that bound specifically to CD4^+- or CD8^+ cells were used to perform the depletion essentially according to manufacturers instructions. Beads were washed twice in cold PBS supplemented with 2% FCS using magnetic isolation. The requisite number of cells was resuspended in cold PBS supplemented with 2% FCS, added to the beads and then incubated at 4° C., in the dark, for 30 mins (CD8^+ beads) or 60 mins (CD4^+ beads). Populations were depleted of CD4^+ or CD8^+ cells using magnetic separation. After depletion, the non-attached cells were removed and washed once in growth medium, counted and used in conventional ELISPOT assay. Depleted cells were used at 1.7×10^5 cells per well and the non-depleted population was used at the standard 2.5×10^5 cells per well. After the depletion step, each respective cell population was assessed for the purity of CD4^+ and CD8^+ T cells by three-colour flow cytometry. Samples of depleted cell populations were stained with anti-CD3 antibody directly conjugated to fluorescein isothiocyanate (FITC), anti-CD4 antibody conjugated with phycoerythrin (PE) fluorochrome, and anti-CD8 antibody conjugated with Tricolor fluorochrome (described below). The percent of CD3^+/CD4^+ cells present within the CD8^+-depleted population and the percent of CD3^+/CD8^+ cells present within the CD4^+-depleted populations were assessed on FACSCalibur cytometer (Becton Dickinson). The purity of each population was greater than 90% and the results from the ELISPOT assays are expressed as the percentage of CD4+ or CD8^+ cells within the depleted populations that responded toward each peptide by producing IFN-γ.
(§2) PBMCs were incubated at 37° C. in RPMI+10% FCS with and without 10 μg/ml peptides for 6 hours. Golgiplug™ (Pharmingen, San Diego, Calif., USA) was added to the samples according to manufacturer's instructions during the second hour of incubation and cells activated with 25 ng/ml phorbol 12-myristidate 13-acetate (PMA; Sigma-Aldrich Co, St. Louis Mo.) and 1 μg/ml iomomycin (Sigma) acted as a positive control. Following the incubation, 1×10^6 cells/sample were washed and resuspended in staining buffer consisting of PBS with GolgiPlug™, 3% FCS and sodium azide. Cells were then stained with FITC conjugated anti-CD3-FITC (UCHT1, Immunotech, Marseille, France), and either Tricolor (TRI) conjugated anti-CD4 (S3.5, Caltag, Burlingame, Calif.) or anti-CD8 (3B5, Caltag) for 30 minutes, 4° C. in the dark. The cells were fixed for 20 min at 4° C. with Cytofix/Cytoperm™ (BD Biosciences) and resuspended in Perm/Wash™ permeabilization buffer (BD Biosciences) according to manufacturers protocol. Fixed cells were stained with phycoerythrin (PE) conjugated anti-human IFN-γ (B27, Pharmingen) for 30 min at 4° C. in the dark. As a negative control, cells were stained with appropriate isotype matched control antibodies. Cells were washed twice in permeabilization buffer and resuspended in staining buffer before analysis by three-colour flow cytometry on a FACSCalibur cytometer (BD Biosciences). All data analysis was carried out using FlowJo software (Tree Star, Inc. San Carlos, CA).
(§3) When using 20-mer peptides to map epitopes by ELISPOT, it is possible that some responses may be MHC class-II restricted, and not necessarily restricted through HLA class I alleles. It was evident throughout this study that some epitopes identified using ELISPOT could not be confirmed using cytotoxicity analysis. […]

CD8+ T cells = assay: as above
Experimental: as §1, §2, §3

[2] = test system: peptide-sensitized autologous PHA blasts or LCLs; set-up: key to CTL response: Y: Yes; ND: Not detected
[3] = overlapping 20mer peptides, Table 4

## QPFMRPHERNGFTVLCPKNM
[1]; donor delta
  ELISPOT Responses (SFC/10^6 PBMC): SE(783) SFC/10^6 PBMC
CD4+ T cells; donor two
  Responding cells (% CD4): 0.05%
CD8+ T cells; donor two
  Responding cells (% CD8): 0%

## LNIPSINVHHYPSAAERKHR
[2]; [3]
  CTL response: Y
[1]; donor sixteen
  ELISPOT Responses (SFC/10^6 PBMC): 222 SFC/10^6 PBMC
[1]; donor twelve
  ELISPOT Responses (SFC/10^6 PBMC): 285 SFC/10^6 PBMC

## NLVPMVATV [reference compound]
[2]; predicted epitopes, Table 3
  CTL response: Y
[1]; cohort of eight HLA A2-positive healthy seropositive donors
  donors recognizing the epitope in ELISPOT: recognized by every donor tested
[1]; donor delta
  ELISPOT Responses (SFC/10^6 PBMC): 170 SFC/10^6 PBMC
[1]; donor fifteen
  ELISPOT Responses (SFC/10^6 PBMC): 356 SFC/10^6 PBMC and 671 SFC/10^6 PBMC
[1]; donor one
  ELISPOT Responses (SFC/10^6 PBMC): 1201 SFC/10^6 PBMC
[1]; donor seven
  ELISPOT Responses (SFC/10^6 PBMC): 1202 SFC/10^6 PBMC
[1]; donor seventeen
  ELISPOT Responses (SFC/10^6 PBMC): 271 SFC/10^6 PBMC
[1]; donor six
  ELISPOT Responses (SFC/10^6 PBMC): 1195 SFC/10^6 PBMC
[1]; donor thirteen
  ELISPOT Responses (SFC/10^6 PBMC): 161 SFC/10^6 PBMC

## SSSSSSCSSASDSESESEEM (human cytomegalovirus IE2 CTL epitope peptide)
[1]; donor eight
  ELISPOT Responses (SFC/10^6 PBMC): 125 SFC/10^6 PBMC
[1]; donor sixteen
  ELISPOT Responses (SFC/10^6 PBMC): 93 SFC/10^6 PBMC
CD4+ T cells; donor eight
  Responding cells (% CD4): 0%
CD4+ T cells; donor sixteen
  Responding cells (% CD4): 0%
CD8+ T cells; donor eight
  Responding cells (% CD8): 0.01%
CD8+ T cells; donor sixteen
  Responding cells (% CD8): 0.05%

## KAAWSLKELHTHQLCPRSSD (human cytomegalovirus IE2 CTL epitope peptide)
[1]; donor sixteen
  ELISPOT Responses (SFC/10^6 PBMC): TC(162) SFC/10^6 PBMC
CD4+ T cells; donor sixteen
  Responding cells (% CD4): 0%
CD8+ T cells; donor sixteen
  Responding cells (% CD8): 0.08%

## QEFFWDANDIYRIFAELEGV
[2]; [3]
  CTL response: Y
[1]; donor epsilon
  ELISPOT Responses (SFC/10^6 PBMC): SC(704) SFC/10^6 PBMC
[1]; donor five
  ELISPOT Responses (SFC/10^6 PBMC): CS(107) SFC/10^6 PBMC
[1]; donor gamma
  ELISPOT Responses (SFC/10^6 PBMC): 295 SFC/10^6 PBMC
[1]; donor twelve
  ELISPOT Responses (SFC/10^6 PBMC): 30 SFC/10^6 PBMC

## VTTERKTPRVTGGGAMAGAS
[1]; donor eight
  ELISPOT Responses (SFC/10^6 PBMC): 285 SFC/10^6 PBMC
[1]; donor epsilon
  ELISPOT Responses (SFC/10^6 PBMC): 322 SFC/10^6 PBMC
[1]; donor two
  ELISPOT Responses (SFC/10^6 PBMC): JD(319) SFC/10^6 PBMC
CD4+ T cells; donor eight
  Responding cells (% CD4): 0.17%
CD8+ T cells; donor eight
  Responding cells (% CD8): 0.24%

## CLPLMQKFPKQVMVRIFSTN (human cytomegalovirus IE2 CTL epitope peptide)
[1]; donor sixteen
  ELISPOT Responses (SFC/10^6 PBMC): TC(256) SFC/10^6 PBMC
CD4+ T cells; donor sixteen
  Responding cells (% CD4): 0%
CD8+ T cells; donor sixteen
  Responding cells (% CD8): 0.15%

## TGGGAMAGASTSAGRKRKSA
[1]; donor eight
  ELISPOT Responses (SFC/10^6 PBMC): JW(441) SFC/10^6 PBMC
CD4+ T cells; donor eight
  Responding cells (% CD4): JW(0.01/0.01) %
CD8+ T cells; donor eight
  Responding cells (% CD8): JW(0.01/0.01) %

## SDSESESEEMKCSSGGGASV (human cytomegalovirus IE2 CTL epitope peptide)
[1]; donor sixteen
  ELISPOT Responses (SFC/10^6 PBMC): TC(147) SFC/10^6 PBMC
CD4+ T cells; donor sixteen
  Responding cells (% CD4): 0.01%
CD8+ T cells; donor sixteen
  Responding cells (% CD8): 0.22%

## SEPVSEIEEVAPEEEEDGAE (human cytomegalovirus IE1 CTL epitope peptide)
[1]; donor delta
  ELISPOT Responses (SFC/10^6 PBMC): SE(200) SFC/10^6 PBMC
CD4+ T cells; donor delta
  Responding cells (% CD4): 0%
CD8+ T cells; donor delta
  Responding cells (% CD8): 0.097%

## VKSEVDAVRCRLGTMCNLAL
[1]; donor delta
  ELISPOT Responses (SFC/10^6 PBMC): 253 SFC/10^6 PBMC
[1]; donor seven
  ELISPOT Responses (SFC/10^6 PBMC): 320 SFC/10^6 PBMC
CD4+ T cells; donor delta
  Responding cells (% CD4): 0%
CD8+ T cells; donor delta
  Responding cells (% CD8): 0.06%

## VLCCYVLEETSVMLAKRPLI (human cytomegalovirus IE1 CTL epitope peptide)
[2]; [3]
  CTL response: Y
[1]; donor seven
  ELISPOT Responses (SFC/10^6 PBMC): SB(2171) SFC/10^6 PBMC

## ILARNLVPMVATVQGQNLKY
[2]; [3]
  CTL response: Y
[1]; donor four
  ELISPOT Responses (SFC/10^6 PBMC): 500 SFC/10^6 PBMC
[1]; donor seven
  ELISPOT Responses (SFC/10^6 PBMC): 216 SFC/10^6 PBMC
[1]; donor three
  ELISPOT Responses (SFC/10^6 PBMC): MW(229) SFC/10^6 PBMC

## HQVLDEAIKACKTMQVNNKG
[1]; donor sixteen
  ELISPOT Responses (SFC/10^6 PBMC): TC(234) SFC/10^6 PBMC
CD4+ T cells; donor sixteen
  Responding cells (% CD4): 0%
CD8+ T cells; donor sixteen
  Responding cells (% CD8): 0.18%

## AHELVCSMENTRATKMQVIG
[1]; donor alpha
  ELISPOT Responses (SFC/10^6 PBMC): 169 SFC/10^6 PBMC
[1]; donor seven
  ELISPOT Responses (SFC/10^6 PBMC): 231 SFC/10^6 PBMC
CD4+ T cells; donor seven
  Responding cells (% CD4): 0.04%
CD8+ T cells; donor seven
  Responding cells (% CD8): 0.01%

## GAAQGDDDVWTSGSDSDEEL
[1]; donor eight
  ELISPOT Responses (SFC/10^6 PBMC): JW(248) SFC/10^6 PBMC
CD4+ T cells; donor eight
  Responding cells (% CD4): 0%
CD8+ T cells; donor eight
  Responding cells (% CD8): 0.01%

## VLEETSVML (human cytomegalovirus IE1 CTL epitope peptide)
[2]; donor seven, effector:target ratio 10:1
  CTL activity of polyclonal CTL line: strong CTL activity
[2]; predicted epitopes, Table 3
  CTL response: Y
[1]; donor fifteen
  ELISPOT Responses (SFC/10^6 PBMC): 245 SFC/10^6 PBMC
[1]; donor seven
  ELISPOT Responses (SFC/10^6 PBMC): 3752 SFC/10^6 PBMC

## TRATKMQVIGDQYVKVYLES
[1]; donor alpha
  ELISPOT Responses (SFC/10^6 PBMC): 139 SFC/10^6 PBMC
[1]; donor seven
  ELISPOT Responses (SFC/10^6 PBMC): 346 SFC/10^6 PBMC
CD4+ T cells; donor seven
  Responding cells (% CD4): 0.09%
CD8+ T cells; donor seven
  Responding cells (% CD8): 0.01%

## TGPRKKKSKRISELDNEKVR
[1]; donor delta
  ELISPOT Responses (SFC/10^6 PBMC): 162 SFC/10^6 PBMC
[1]; donor seven
  ELISPOT Responses (SFC/10^6 PBMC): 148 SFC/10^6 PBMC
CD4+ T cells; donor seven
  Responding cells (% CD4): SB(0.02/0.02) %
CD8+ T cells; donor seven
  Responding cells (% CD8): SB(0.02/0.02) %

## FRNTNRSLEYKNLPFTIPSM
[1]; donor sixteen
  ELISPOT Responses (SFC/10^6 PBMC): TC(187) SFC/10^6 PBMC
CD4+ T cells; donor sixteen
  Responding cells (% CD4): 0%
CD8+ T cells; donor sixteen
  Responding cells (% CD8): 0.25%

## DQYVKVYLESFCEDVPSGKL
[1]; donor delta
  ELISPOT Responses (SFC/10^6 PBMC): SE(265) SFC/10^6 PBMC
CD4+ T cells; donor delta
  Responding cells (% CD4): 0%
CD8+ T cells; donor delta
  Responding cells (% CD8): 0.23%

## FPTKDVAL [reference compound]
[2]; predicted epitopes, Table 3
  CTL response: Y
[1]; donor three
  ELISPOT Responses (SFC/10^6 PBMC): MW(445) SFC/10^6 PBMC

## CKTMQVNNKGIQIIYTRNHE
[1]; donor sixteen
  ELISPOT Responses (SFC/10^6 PBMC): TC(154) SFC/10^6 PBMC
CD4+ T cells; donor sixteen
  Responding cells (% CD4): 0%
CD8+ T cells; donor sixteen
  Responding cells (% CD8): 0.14%
